In PubChem BioAssay (NCI):
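Cultured in 96-well plates, cells were exposed to test compound for 48 hours across five concentrations. GI50 is the concentration that inhibits growth by half. TGI: total growth inhibition.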

Key:
Experiment in all cases: growth of human tumour cells (NCI), 48 h
[1] = test system: 786-0 renal
[2] = test system: A549 NSCLC
[3] = test system: ACHN renal
[4] = test system: BT-549 breast
[5] = test system: CAKI-1 renal
[6] = test system: CCRF-CEM leukemia
[7] = test system: COLO 205 colon
[8] = test system: DU-145 prostate
[9] = test system: EKVX NSCLC
[10] = test system: HCC-2998 colon
[11] = test system: HCT-15 colon
[12] = test system: HOP-62 NSCLC
[13] = test system: HOP-92 NSCLC
[14] = test system: HS 578T breast
[15] = test system: HT29 colon
[16] = test system: K-562 leukemia
[17] = test system: KM12 colon
[18] = test system: LOX IMVI melanoma
[19] = test system: M14 melanoma
[20] = test system: MCF7 breast
[21] = test system: MDA-MB-231 breast
[22] = test system: MDA-MB-435
[23] = test system: MOLT-4 leukemia
[24] = test system: NCI-H226 lung
[25] = test system: NCI-H23 lung
[26] = test system: NCI-H460 lung
[27] = test system: NCI-H522 lung
[28] = test system: NCI/ADR-RES ovarian
[29] = test system: OVCAR-3 ovarian
[30] = test system: OVCAR-4 ovarian
[31] = test system: OVCAR-5 ovarian
[32] = test system: OVCAR-8 ovarian
[33] = test system: PC-3 prostate
[34] = test system: RPMI-8226 leukemia
[35] = test system: RXF 393 renal
[36] = test system: SF-268 CNS
[37] = test system: SF-295 CNS
[38] = test system: SF-539 CNS
[39] = test system: SK-MEL-2 melanoma
[40] = test system: SK-MEL-28 melanoma
[41] = test system: SK-MEL-5 melanoma
[42] = test system: SK-OV-3 ovarian
[43] = test system: SN12C renal
[44] = test system: SNB-19 CNS
[45] = test system: SNB-75 CNS
[46] = test system: SW-620 colon
[47] = test system: T-47D breast
[48] = test system: TK-10 renal
[49] = test system: U251 CNS
[50] = test system: UACC-257 melanoma
[51] = test system: UACC-62 melanoma
[52] = test system: UO-31 renal

C=CCCCC(O)c1ccc(C(O)c2cnc3ccccc3c2)o1 (centres undefined)
GI50 [1]: 39.8 µM
TGI [1]: > 100 µM
GI50 [2]: 31 µM
TGI [2]: > 100 µM
GI50 [3]: 25.4 µM
TGI [3]: 61.6 µM
GI50 [4]: 19.7 µM
TGI [4]: 63.5 µM
GI50 [5]: 31.4 µM
TGI [5]: 98.4 µM
GI50 [6]: 29.4 µM
TGI [6]: 86.7 µM
GI50 [7]: 33.7 µM
TGI [7]: > 100 µM
GI50 [8]: 40 µM
TGI [8]: > 100 µM
GI50 [9]: 19.2 µM
TGI [9]: > 100 µM
GI50 [10]: 19 µM
TGI [10]: 51.4 µM
GI50 [11]: 31.4 µM
TGI [11]: > 100 µM
GI50 [12]: 21.2 µM
TGI [12]: 64.9 µM
GI50 [13]: 60.1 µM
TGI [13]: > 100 µM
GI50 [14]: 22.3 µM
TGI [14]: > 100 µM
GI50 [15]: 46.9 µM
TGI [15]: > 100 µM
GI50 [16]: 25 µM
TGI [16]: 52.6 µM
GI50 [17]: 28.1 µM
TGI [17]: 77.9 µM
GI50 [18]: 17.1 µM
TGI [18]: 33.8 µM
GI50 [19]: 19.6 µM
TGI [19]: 41.3 µM
GI50 [20]: 26 µM
TGI [20]: > 100 µM
GI50 [21]: 27 µM
TGI [21]: 69.9 µM
GI50 [22]: 22.5 µM
TGI [22]: 48.4 µM
GI50 [23]: 32.1 µM
TGI [23]: 82 µM
GI50 [24]: 30.8 µM
TGI [24]: 71.5 µM
GI50 [25]: 14.3 µM
TGI [25]: 49.6 µM
GI50 [26]: 26.9 µM
TGI [26]: > 100 µM
GI50 [27]: 28.4 µM
TGI [27]: > 100 µM
GI50 [28]: 15.2 µM
TGI [28]: 36.9 µM
GI50 [29]: 88.2 µM
TGI [29]: > 100 µM
GI50 [30]: > 100 µM
TGI [30]: > 100 µM
GI50 [31]: 24.4 µM
TGI [31]: 76.8 µM
GI50 [32]: 26.7 µM
TGI [32]: 72 µM
GI50 [33]: 32.6 µM
TGI [33]: > 100 µM
GI50 [34]: 17.9 µM
TGI [34]: 72.2 µM
GI50 [35]: 83.2 µM
TGI [35]: > 100 µM
GI50 [36]: 32.5 µM
TGI [36]: > 100 µM
GI50 [37]: 35.6 µM
TGI [37]: > 100 µM
GI50 [38]: 27.9 µM
TGI [38]: 82.5 µM
GI50 [39]: 34.1 µM
TGI [39]: > 100 µM
GI50 [40]: 69.1 µM
TGI [40]: > 100 µM
GI50 [41]: 9.52 µM
TGI [41]: 22.4 µM
GI50 [42]: > 100 µM
TGI [42]: > 100 µM
GI50 [43]: 30.9 µM
TGI [43]: 90.9 µM
GI50 [44]: 82.5 µM
TGI [44]: > 100 µM
GI50 [45]: 99.2 µM
TGI [45]: > 100 µM
GI50 [46]: 38.1 µM
TGI [46]: > 100 µM
GI50 [47]: > 100 µM
TGI [47]: > 100 µM
GI50 [48]: 33.2 µM
TGI [48]: 67 µM
GI50 [49]: 29.9 µM
TGI [49]: > 100 µM
GI50 [50]: 18.8 µM
TGI [50]: 61.4 µM
GI50 [51]: 19.8 µM
TGI [51]: 39.8 µM
GI50 [52]: 50.9 µM
TGI [52]: > 100 µM
